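These data come from cells grown in 96-well plates and exposed to compound for 48 hours at five concentrations. GI50: concentration for 50% inhibition of growth.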 The source made the active and inactive calls. No stated cut-off is given here; in the data, active = GI50 up to about 1.1 µM and inactive = higher.
How the values were obtained:
Test in all cases: growth of human tumour cells (NCI), 48 h
COLO 205 = tested on: COLO 205
HOP-62 = tested on: HOP-62
SW-620 = tested on: SW-620
MDA-MB-231 = tested on: MDA-MB-231
LOX IMVI = tested on: LOX IMVI
SNB-19 = tested on: SNB-19
HCC 2998 = tested on: HCC 2998
SK-OV-3 = tested on: SK-OV-3
RXF 393 = tested on: RXF 393
MDA-N = tested on: MDA-N
OVCAR-8 = tested on: OVCAR-8
KM12 = tested on: KM12
SK-MEL-28 = tested on: SK-MEL-28
DU-145 = tested on: DU-145
CCRF-CEM = tested on: CCRF-CEM
MOLT-4 = tested on: MOLT-4
RPMI-8226 = tested on: RPMI-8226
OVCAR-5 = tested on: OVCAR-5
SK-MEL-2 = tested on: SK-MEL-2
T47D = tested on: T47D

Structure (SMILES) | GI50 (COLO 205) | GI50 (HOP-62) | GI50 (SW-620) | GI50 (MDA-MB-231) | GI50 (LOX IMVI) | GI50 (SNB-19) | GI50 (HCC 2998) | GI50 (SK-OV-3) | GI50 (RXF 393) | GI50 (MDA-N) | GI50 (OVCAR-8) | GI50 (KM12) | GI50 (SK-MEL-28) | GI50 (DU-145) | GI50 (CCRF-CEM) | GI50 (MOLT-4) | GI50 (RPMI-8226) | GI50 (OVCAR-5) | GI50 (SK-MEL-2) | GI50 (T47D)
CCOC(=O)N/N=C(/N)Cc1ccc(Cl)cc1 | > 100 µM (inactive) | > 100 µM (inactive) | > 100 µM (inactive) | > 100 µM (inactive) | > 100 µM (inactive) | > 100 µM (inactive) | > 100 µM (inactive) | > 100 µM (inactive) | > 100 µM (inactive) | > 100 µM (inactive) | > 100 µM (inactive) | > 100 µM (inactive) | > 100 µM (inactive) | > 100 µM (inactive) | > 100 µM (inactive) | > 100 µM (inactive) | > 100 µM (inactive) | > 100 µM (inactive) | > 100 µM (inactive) | –
CCOc1ccccc1NC(=O)C1=C(C)NC(C)=C(C(=O)Nc2ccccc2OCC)C1c1ccc(NC(C)=O)cc1 | 16.7 µM (inactive) | 9.66 µM (inactive) | 35.6 µM (inactive) | – | 38.9 µM (inactive) | 96.2 µM (inactive) | 12.3 µM (inactive) | 11.5 µM (inactive) | 20.8 µM (inactive) | – | 73.5 µM (inactive) | 24.8 µM (inactive) | 73.8 µM (inactive) | – | 61.4 µM (inactive) | 32.1 µM (inactive) | 47.8 µM (inactive) | 33.6 µM (inactive) | 17.9 µM (inactive) | –
CCN(CC)CCNC(=O)c1nn(C)c(=S)[nH]c1=S | > 100 µM (inactive) | > 100 µM (inactive) | > 100 µM (inactive) | – | > 100 µM (inactive) | > 100 µM (inactive) | > 100 µM (inactive) | > 100 µM (inactive) | > 100 µM (inactive) | – | > 100 µM (inactive) | > 100 µM (inactive) | > 100 µM (inactive) | – | > 100 µM (inactive) | > 100 µM (inactive) | > 100 µM (inactive) | > 100 µM (inactive) | > 100 µM (inactive) | –
COC(=O)C1=C(C(=O)OC)C23CC4CCC2(C(=O)C1O3)C4(C)C (stereo unspecified) | > 100 µM (inactive) | – | 78.3 µM (inactive) | – | 84.5 µM (inactive) | > 100 µM (inactive) | > 100 µM (inactive) | > 100 µM (inactive) | 58.5 µM (inactive) | – | > 100 µM (inactive) | > 100 µM (inactive) | > 100 µM (inactive) | > 100 µM (inactive) | 22.1 µM (inactive) | 30.4 µM (inactive) | 34.1 µM (inactive) | > 100 µM (inactive) | > 100 µM (inactive) | –
COc1cc(=O)n2c3ccccc3n(C)c2c1C#N | > 100 µM (inactive) | > 100 µM (inactive) | > 100 µM (inactive) | > 100 µM (inactive) | – | > 100 µM (inactive) | > 100 µM (inactive) | > 100 µM (inactive) | > 100 µM (inactive) | > 100 µM (inactive) | > 100 µM (inactive) | > 100 µM (inactive) | – | > 100 µM (inactive) | > 100 µM (inactive) | 45.3 µM (inactive) | > 100 µM (inactive) | > 100 µM (inactive) | > 100 µM (inactive) | –
COc1cc(CC(=O)O)c([N+](=O)[O-])cc1OC | > 100 µM (inactive) | > 100 µM (inactive) | > 100 µM (inactive) | – | > 100 µM (inactive) | > 100 µM (inactive) | > 100 µM (inactive) | > 100 µM (inactive) | > 100 µM (inactive) | – | > 100 µM (inactive) | > 100 µM (inactive) | > 100 µM (inactive) | – | > 100 µM (inactive) | > 100 µM (inactive) | > 100 µM (inactive) | > 100 µM (inactive) | > 100 µM (inactive) | –
O=C1C2=C(C(c3ccccc3)=C1c1ccccc1)c1ccccc1C1(c3ccccc3)C2=C(O)C(c2ccccc2)=C1c1ccccc1 (stereo unspecified) | > 100 µM (inactive) | > 100 µM (inactive) | > 100 µM (inactive) | – | > 100 µM (inactive) | – | > 100 µM (inactive) | > 100 µM (inactive) | > 100 µM (inactive) | – | > 100 µM (inactive) | > 100 µM (inactive) | > 100 µM (inactive) | – | – | > 100 µM (inactive) | > 100 µM (inactive) | > 100 µM (inactive) | > 100 µM (inactive) | –
O=C1Oc2cc3c(c4cccc1c24)OCN(c1ccc(Cl)cc1)C3 | 7.82 µM (inactive) | 4.32 µM (inactive) | 7.4 µM (inactive) | – | 0.176 µM (active) | 47.8 µM (inactive) | 27.4 µM (inactive) | > 100 µM (inactive) | > 52.7 µM (inactive) | – | 11.7 µM (inactive) | > 44.5 µM (inactive) | > 49.2 µM (inactive) | – | 9.23 µM (inactive) | 7 µM (inactive) | 7.14 µM (inactive) | > 35.8 µM (inactive) | 1.83 µM (inactive) | –
O=P(Oc1ccc2ccccc2c1)(N1CC1)N1CC1 | 55.6 µM (inactive) | – | > 100 µM (inactive) | – | 28.8 µM (inactive) | 26.9 µM (inactive) | 88.1 µM (inactive) | 46.3 µM (inactive) | 14.3 µM (inactive) | – | 59.2 µM (inactive) | > 100 µM (inactive) | 28.4 µM (inactive) | – | 44.9 µM (inactive) | 53.2 µM (inactive) | > 100 µM (inactive) | 34 µM (inactive) | 68.1 µM (inactive) | –
NC1c2ccccc2Nc2ccccc21 | 2.21 µM (inactive) | 6.15 µM (inactive) | 3.66 µM (inactive) | – | 3.53 µM (inactive) | 5.18 µM (inactive) | 6.46 µM (inactive) | 4.67 µM (inactive) | 6.24 µM (inactive) | – | 4.34 µM (inactive) | 4.22 µM (inactive) | 3.54 µM (inactive) | – | 5.2 µM (inactive) | 2.94 µM (inactive) | 4.56 µM (inactive) | 5.04 µM (inactive) | 13.2 µM (inactive) | –
Cc1ccccc1C(CCCO)C(=O)O (stereo unspecified) | > 100 µM (inactive) | > 100 µM (inactive) | > 100 µM (inactive) | – | > 100 µM (inactive) | > 100 µM (inactive) | > 10 µM (inactive) | > 100 µM (inactive) | > 100 µM (inactive) | – | > 100 µM (inactive) | > 100 µM (inactive) | > 100 µM (inactive) | – | > 100 µM (inactive) | > 100 µM (inactive) | > 100 µM (inactive) | > 100 µM (inactive) | > 100 µM (inactive) | –
COC(=O)N/N=C(\Cc1ccccc1)CN(C)C | > 100 µM (inactive) | > 100 µM (inactive) | > 100 µM (inactive) | – | > 100 µM (inactive) | – | > 100 µM (inactive) | > 100 µM (inactive) | > 100 µM (inactive) | – | > 100 µM (inactive) | > 100 µM (inactive) | > 100 µM (inactive) | – | > 100 µM (inactive) | > 100 µM (inactive) | > 100 µM (inactive) | > 100 µM (inactive) | > 100 µM (inactive) | –
O=S1(=O)c2ccccc2Oc2ccc(C(/C=N/O)=N/O)cc21 | > 100 µM (inactive) | 65.5 µM (inactive) | – | 45.5 µM (inactive) | 19.8 µM (inactive) | – | – | 39.6 µM (inactive) | 15.5 µM (inactive) | – | 18.4 µM (inactive) | 22 µM (inactive) | 56.8 µM (inactive) | 11.2 µM (inactive) | 25.8 µM (inactive) | 27.5 µM (inactive) | 19.1 µM (inactive) | > 100 µM (inactive) | 25.7 µM (inactive) | 9.08 µM (inactive)
Cc1ccc(S(=O)(=O)N/N=C/c2oc(-c3cccc([N+](=O)[O-])c3)c(-c3cccc([N+](=O)[O-])c3)c2[N+](=O)[O-])cc1 | > 100 µM (inactive) | – | 37.8 µM (inactive) | – | 16.7 µM (inactive) | 67.1 µM (inactive) | > 100 µM (inactive) | 23.4 µM (inactive) | 27 µM (inactive) | – | 70.6 µM (inactive) | 36 µM (inactive) | 51.6 µM (inactive) | > 100 µM (inactive) | 19.5 µM (inactive) | 25.8 µM (inactive) | 24 µM (inactive) | > 100 µM (inactive) | 28.3 µM (inactive) | –
COc1cc2c(cc1OC)[C@@H]1[C@H](C#N)C(=O)C(C)(C)N1CC2 | > 100 µM (inactive) | – | > 100 µM (inactive) | 28.6 µM (inactive) | > 100 µM (inactive) | > 100 µM (inactive) | > 100 µM (inactive) | > 100 µM (inactive) | – | > 100 µM (inactive) | > 100 µM (inactive) | > 100 µM (inactive) | > 100 µM (inactive) | > 100 µM (inactive) | > 100 µM (inactive) | > 100 µM (inactive) | 53.7 µM (inactive) | > 100 µM (inactive) | – | –
Cc1ccccc1/N=N/c1ccc(/N=N/c2c(O)ccc3ccccc23)c(C)c1 [SCARLET RED] | > 100 µM (inactive) | 38 µM (inactive) | > 100 µM (inactive) | > 100 µM (inactive) | > 100 µM (inactive) | 81.7 µM (inactive) | – | > 100 µM (inactive) | > 100 µM (inactive) | – | > 100 µM (inactive) | > 100 µM (inactive) | > 100 µM (inactive) | > 100 µM (inactive) | > 10 µM (inactive) | > 100 µM (inactive) | > 100 µM (inactive) | > 100 µM (inactive) | > 100 µM (inactive) | > 100 µM (inactive)
COc1ccc2c(n1)Sc1nc3ccccc3nc1N2 | > 100 µM (inactive) | 16.1 µM (inactive) | > 100 µM (inactive) | 13.2 µM (inactive) | 31.4 µM (inactive) | 30.3 µM (inactive) | – | 37.2 µM (inactive) | 32.2 µM (inactive) | – | 16.2 µM (inactive) | 55.7 µM (inactive) | > 100 µM (inactive) | > 100 µM (inactive) | 29.4 µM (inactive) | 13.8 µM (inactive) | > 100 µM (inactive) | 56.1 µM (inactive) | > 100 µM (inactive) | > 100 µM (inactive)
